These are literature values, as cited in patent US20100112724A1, “METHOD OF DETERMINATION OF PROTEIN LIGAND BINDING AND OF THE MOST PROBABLE LIGAND POSE IN PROTEIN BINDING SITE” (priority 2007, published 2010).

Each structure is given as a SMILES string.

The series relates to protein of the protein-ligand complex (pdb code). As to conditions: experimentally known binding affinity of test and training protein-ligand complexes selected from PDB, structures described in publications [7, 8, 9].
Regarding `O[C@@H]1[C@@H](O)[C@@H](O)CO[C@H]1O` [1ABE], the “ΔG, kcal/mol (free energy of ligand-protein binding)” value was -9.2 kcal/mol.

On to `C[C@H]1O[C@H](O)[C@H](O)[C@@H](O)[C@H]1O` [1ABF], for which the “ΔG, kcal/mol (free energy of ligand-protein binding)” value was -7.3 kcal/mol.

As to `Nc1ccnc2c1ncn2[C@@H]1O[C@H](CO)[C@@H](O)[C@H]1O` [1ADD], the “ΔG, kcal/mol (free energy of ligand-protein binding)” value is -9.2 kcal/mol. Take `OC[C@H]1O[C@H](O[C@H]2[C@H](O)[C@@H](O)[C@H](O)O[C@@H]2CO)[C@H](O)[C@@H](O)[C@@H]1O` [1ANF]: the “ΔG, kcal/mol (free energy of ligand-protein binding)” value is -7.3 kcal/mol.

Regarding `C[C@H]1O[C@@H](O)[C@H](O)[C@@H](O)[C@H]1O` [1APB], the “ΔG, kcal/mol (free energy of ligand-protein binding)” value was -7.8 kcal/mol. As for `O[C@@H]1[C@@H](O)[C@@H](O)OC[C@@H]1O` [1BAP], the “ΔG, kcal/mol (free energy of ligand-protein binding)” value is -9.3 kcal/mol.

As for `CN[C@H]1CN(c2cccc(OC)c2)S(=O)(=O)c2sc(S(N)(=O)=O)cc21` [1BNM], the “ΔG, kcal/mol (free energy of ligand-protein binding)” value was -14.2 kcal/mol.

In the case of `COc1cccc(N2CCc3cc(S(N)(=O)=O)sc3S2(=O)=O)c1` [1BNN], the “ΔG, kcal/mol (free energy of ligand-protein binding)” value was -14.2 kcal/mol. For the molecule `CCN[C@H]1CN(CCOC)S(=O)(=O)c2sc(S(N)(=O)=O)cc21` [1BNQ], the “ΔG, kcal/mol (free energy of ligand-protein binding)” value was -13.5 kcal/mol.

Regarding `COc1ccc(N2C[C@H](O)c3cc(S(N)(=O)=O)sc3S2(=O)=O)cc1` [1BNT], the “ΔG, kcal/mol (free energy of ligand-protein binding)” value was -13.9 kcal/mol. Turning to `NS(=O)(=O)c1cc2c(s1)S(=O)(=O)N(Cc1cccs1)C[C@@H]2O` [1BNU], the “ΔG, kcal/mol (free energy of ligand-protein binding)” value is -13.8 kcal/mol.

On to `NS(=O)(=O)c1ccc(S(=O)(=O)NCc2cccs2)s1` [1BNW], for which the “ΔG, kcal/mol (free energy of ligand-protein binding)” value was -12.9 kcal/mol.

As for `CC1=C(/C=C/C(C)=C/C=C/C(C)=C/CO)C(C)(C)CCC1` [1BRP], the “ΔG, kcal/mol (free energy of ligand-protein binding)” value was -9.3 kcal/mol.

With `O=C(O)C[C@@H](Cc1ccccc1)C(=O)O` [1CBX], the “ΔG, kcal/mol (free energy of ligand-protein binding)” value was -8.7 kcal/mol. As for `CCN[C@H]1C[C@H](C)S(=O)(=O)c2sc(S(N)(=O)=O)cc21` [1CIL], the “ΔG, kcal/mol (free energy of ligand-protein binding)” value is -12.9 kcal/mol. In the case of `C[C@H]1C[C@H](N)c2cc(S(N)(=O)=O)sc2S1(=O)=O` [1CIM], the “ΔG, kcal/mol (free energy of ligand-protein binding)” value is -12 kcal/mol. For the molecule `CN[C@H]1C[C@H](C)S(=O)(=O)c2sc(S(N)(=O)=O)cc21` [1CIN], the “ΔG, kcal/mol (free energy of ligand-protein binding)” value was -11.9 kcal/mol.

Take `C[C@]12CCC(=O)C[C@H]1CC[C@@H]1[C@@H]2CC[C@]2(C)C(=O)CC[C@@H]12` [1DBK]: the “ΔG, kcal/mol (free energy of ligand-protein binding)” value was -11 kcal/mol. As for `Nc1nc(=O)c2nc(CNc3ccc(C(=O)N[C@@H](CCC(=O)O)C(=O)O)cc3)cnc2[nH]1` [1DHF], the “ΔG, kcal/mol (free energy of ligand-protein binding)” value was -10.1 kcal/mol. In the case of `N=C(N)c1ccccc1` [1DWB], the “ΔG, kcal/mol (free energy of ligand-protein binding)” value was -4 kcal/mol. For `N[C@@H](Cc1c[nH]cn1)C(=O)O` [1HSL], the “ΔG, kcal/mol (free energy of ligand-protein binding)” value was -9.8 kcal/mol. For the molecule `C[C@H](NC(=O)[C@@H](CS)Cc1ccccc1)C(=O)NCC(N)=O` [1JAO], the “ΔG, kcal/mol (free energy of ligand-protein binding)” value was -8.1 kcal/mol. As for `CNC(=O)[C@H](Cc1ccccc1)NC(=O)[C@@H](CC(=O)NO)CC(C)C` [1MNC], the “ΔG, kcal/mol (free energy of ligand-protein binding)” value was -12.6 kcal/mol.

With `CC(=O)N[C@H]1[C@H]([C@H](O)[C@H](O)CO)OC(C(=O)O)=C[C@@H]1O` [1NNB], the “ΔG, kcal/mol (free energy of ligand-protein binding)” value is -7.2 kcal/mol. In the case of `CC(=O)N[C@H]1[C@H]([C@@H](O)[C@@H](O)CO)O[C@@](O)(C(=O)O)C[C@@H]1O` [1NSC], the “ΔG, kcal/mol (free energy of ligand-protein binding)” value was -4.1 kcal/mol. As for `O=C(O)[C@H](O)[C@@H](O)[C@H](O)[C@H](O)COP(=O)(O)O` [1PGP], the “ΔG, kcal/mol (free energy of ligand-protein binding)” value was -7.8 kcal/mol. Consider `Cc1ccc(S(=O)(=O)N[C@@H](Cc2cccc(C(=N)N)c2)C(=O)N2CCCCC2)cc1` [1PPH], for which the “ΔG, kcal/mol (free energy of ligand-protein binding)” value was -8.4 kcal/mol. Turning to `CC1=C(/C=C/C(C)=C/C=C/C(C)=C/CO)C(C)(C)CCC1` [1RBP], the “ΔG, kcal/mol (free energy of ligand-protein binding)” value was -9.2 kcal/mol.

Regarding `Nc1nc2c(ncn2[C@@H]2O[C@H](CO)[C@@H](O)[C@H]2OP(=O)(O)O)c(=O)[nH]1` [1RNT], the “ΔG, kcal/mol (free energy of ligand-protein binding)” value is -7.1 kcal/mol.

In the case of `NCC1CCCCC1` [1TNG], the “ΔG, kcal/mol (free energy of ligand-protein binding)” value is -4 kcal/mol. `NCCCCc1ccccc1` [1TNI]: the “ΔG, kcal/mol (free energy of ligand-protein binding)” value was -2.3 kcal/mol. As to `NCCc1ccccc1` [1TNJ], the “ΔG, kcal/mol (free energy of ligand-protein binding)” value was -2.7 kcal/mol. As for `NCCCc1ccccc1` [1TNK], the “ΔG, kcal/mol (free energy of ligand-protein binding)” value is -2 kcal/mol. On to `N[C@H]1C[C@@H]1c1ccccc1` [1TNL], for which the “ΔG, kcal/mol (free energy of ligand-protein binding)” value is -2.6 kcal/mol. Regarding `O=C(O)[C@@H](O)Cc1ccccc1` [2CTC], the “ΔG, kcal/mol (free energy of ligand-protein binding)” value was -5.3 kcal/mol. As to `CC(=O)[C@H]1CC[C@H]2[C@@H]3CC[C@H]4C[C@@H](OC(=O)CCC(=O)O)CC[C@]4(C)[C@H]3CC[C@]12C` [2DBL], the “ΔG, kcal/mol (free energy of ligand-protein binding)” value is -11.9 kcal/mol. For `OC[C@H]1O[C@@H](O)[C@H](O)[C@@H]1O` [2DRI], the “ΔG, kcal/mol (free energy of ligand-protein binding)” value was -8.9 kcal/mol.

Regarding `OC[C@H]1O[C@@H](O)[C@H](O)[C@@H](O)[C@@H]1O` [2GBP], the “ΔG, kcal/mol (free energy of ligand-protein binding)” value was -10.2 kcal/mol.

Take `CC(=O)N[C@H]1[C@H]([C@H](O)[C@H](O)CO)O[C@@](O)(C(=O)O)C[C@@H]1O` [2QWB]: the “ΔG, kcal/mol (free energy of ligand-protein binding)” value was -3.7 kcal/mol. As for `CC(=O)N[C@H]1[C@H]([C@H](O)[C@H](O)CO)OC(C(=O)O)=C[C@@H]1O` [2QWC], the “ΔG, kcal/mol (free energy of ligand-protein binding)” value is -4.8 kcal/mol. For the molecule `CC(=O)N[C@H]1[C@H]([C@H](O)[C@H](O)CO)OC(C(=O)O)=C[C@@H]1N` [2QWD], the “ΔG, kcal/mol (free energy of ligand-protein binding)” value was -6.6 kcal/mol. With `CC(=O)N[C@H]1[C@H]([C@H](O)[C@H](O)CO)OC(C(=O)O)=C[C@@H]1N=C(N)N` [2QWE], the “ΔG, kcal/mol (free energy of ligand-protein binding)” value is -10.2 kcal/mol. With `CCN(CC)C(=O)[C@@H]1OC(C(=O)O)=C[C@H](N)[C@H]1NC(C)=O` [2QWG], the “ΔG, kcal/mol (free energy of ligand-protein binding)” value was -11.5 kcal/mol.

With `CC(C)C[C@H](NP(=O)(O)O)C(N)=O` [2TMN], the “ΔG, kcal/mol (free energy of ligand-protein binding)” value was -8 kcal/mol. For `O=C(O)COP(=O)(O)O` [2YPI], the “ΔG, kcal/mol (free energy of ligand-protein binding)” value is -6.6 kcal/mol. For `N=C(N)c1ccccc1` [3PTB], the “ΔG, kcal/mol (free energy of ligand-protein binding)” value was -6.3 kcal/mol. As to `OC[C@H]1O[C@H](O)[C@H](O)[C@@H](O)[C@H]1O` [5ABP], the “ΔG, kcal/mol (free energy of ligand-protein binding)” value is -8.9 kcal/mol.

For `O=P(O)(O)OC[C@@H](O)CO` [6TIM], the “ΔG, kcal/mol (free energy of ligand-protein binding)” value is -4.4 kcal/mol. For the molecule `C[C@H]1O[C@H](O)[C@H](O)[C@@H](O)[C@H]1O` [7ABP], the “ΔG, kcal/mol (free energy of ligand-protein binding)” value is -8.7 kcal/mol. For the molecule `O=C(COP(=O)(O)O)NO` [7TIM], the “ΔG, kcal/mol (free energy of ligand-protein binding)” value was -7.4 kcal/mol. Regarding `OC[C@H]1O[C@H](O)[C@H](O)[C@@H](O)[C@H]1O` [8ABP], the “ΔG, kcal/mol (free energy of ligand-protein binding)” value is -10.7 kcal/mol.

On to `O=C(O)C[C@H](NC(=O)CP(=O)(O)O)C(=O)O` [8ATC], for which the “ΔG, kcal/mol (free energy of ligand-protein binding)” value was -10.3 kcal/mol. As for `OC[C@H]1O[C@@H](O)[C@H](O)[C@@H](O)[C@H]1O` [9ABP], the “ΔG, kcal/mol (free energy of ligand-protein binding)” value is -10.7 kcal/mol.
